# Reference: article PMC9410882, “Identification of a novel deFADding activity in human, yeast and bacterial 5′ to 3′ exoribonucleases” (Nucleic Acids Research, 2022)
# Legend:
# [1] = biological target: T1, Xrn1 (Kl Xrn1) (Kluyveromyces lactis, UniProt Q6CJ09); assay: inhibition of decay of […]-labelled capped RNA, gel; type: biochemical; conditions: FAD-capped or NAD-capped RNA as substrate
# T1 construct: gene KLLA0_F22385g; recombinant, Ni-NTA purified
# [2] = biological target: T2, RNase AM (yciV) (Escherichia coli, UniProt P77766); assay: thermal shift assay; type: binding; conditions: Mn2+-loaded enzyme; data not shown
# T2 construct: gene rnm; full-length, His-tagged, expressed in E. coli BL21 (DE3) Rosetta with 2,2'-bipyridyl and MnSO4; Ni-NTA and gel filtration
# T2 sequence (P77766 1-293): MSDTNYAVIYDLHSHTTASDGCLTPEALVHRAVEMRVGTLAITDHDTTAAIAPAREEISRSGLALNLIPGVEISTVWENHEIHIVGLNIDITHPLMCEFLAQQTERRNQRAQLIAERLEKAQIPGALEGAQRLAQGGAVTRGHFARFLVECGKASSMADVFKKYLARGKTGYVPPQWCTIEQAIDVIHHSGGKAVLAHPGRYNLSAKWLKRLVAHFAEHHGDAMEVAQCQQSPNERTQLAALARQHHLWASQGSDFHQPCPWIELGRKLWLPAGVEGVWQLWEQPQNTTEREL
# [3] = biological target: T3, Kl Xrn1 (Kluyveromyces lactis, UniProt Q6CJ09 1-1245); assay: EMSA; stable complex, minimally competed by total yeast RNA; EMSA: 10 mM Tris-HCl pH 7.5, 150 mM KCl, 1.5 mM MgCl2, 0.5 mM DTT, on ice 30 min, 5 pmol RNA with 2.5-7.5 pmol Xrn1, 6% gel in 0.5x TBE; FcRAP: 1x lysis buffer, 4 C, 90 min; conditions: protein: recombinant; tags: C-terminal 6xHis; label: 32P uniform; single strand
# T3 sequence: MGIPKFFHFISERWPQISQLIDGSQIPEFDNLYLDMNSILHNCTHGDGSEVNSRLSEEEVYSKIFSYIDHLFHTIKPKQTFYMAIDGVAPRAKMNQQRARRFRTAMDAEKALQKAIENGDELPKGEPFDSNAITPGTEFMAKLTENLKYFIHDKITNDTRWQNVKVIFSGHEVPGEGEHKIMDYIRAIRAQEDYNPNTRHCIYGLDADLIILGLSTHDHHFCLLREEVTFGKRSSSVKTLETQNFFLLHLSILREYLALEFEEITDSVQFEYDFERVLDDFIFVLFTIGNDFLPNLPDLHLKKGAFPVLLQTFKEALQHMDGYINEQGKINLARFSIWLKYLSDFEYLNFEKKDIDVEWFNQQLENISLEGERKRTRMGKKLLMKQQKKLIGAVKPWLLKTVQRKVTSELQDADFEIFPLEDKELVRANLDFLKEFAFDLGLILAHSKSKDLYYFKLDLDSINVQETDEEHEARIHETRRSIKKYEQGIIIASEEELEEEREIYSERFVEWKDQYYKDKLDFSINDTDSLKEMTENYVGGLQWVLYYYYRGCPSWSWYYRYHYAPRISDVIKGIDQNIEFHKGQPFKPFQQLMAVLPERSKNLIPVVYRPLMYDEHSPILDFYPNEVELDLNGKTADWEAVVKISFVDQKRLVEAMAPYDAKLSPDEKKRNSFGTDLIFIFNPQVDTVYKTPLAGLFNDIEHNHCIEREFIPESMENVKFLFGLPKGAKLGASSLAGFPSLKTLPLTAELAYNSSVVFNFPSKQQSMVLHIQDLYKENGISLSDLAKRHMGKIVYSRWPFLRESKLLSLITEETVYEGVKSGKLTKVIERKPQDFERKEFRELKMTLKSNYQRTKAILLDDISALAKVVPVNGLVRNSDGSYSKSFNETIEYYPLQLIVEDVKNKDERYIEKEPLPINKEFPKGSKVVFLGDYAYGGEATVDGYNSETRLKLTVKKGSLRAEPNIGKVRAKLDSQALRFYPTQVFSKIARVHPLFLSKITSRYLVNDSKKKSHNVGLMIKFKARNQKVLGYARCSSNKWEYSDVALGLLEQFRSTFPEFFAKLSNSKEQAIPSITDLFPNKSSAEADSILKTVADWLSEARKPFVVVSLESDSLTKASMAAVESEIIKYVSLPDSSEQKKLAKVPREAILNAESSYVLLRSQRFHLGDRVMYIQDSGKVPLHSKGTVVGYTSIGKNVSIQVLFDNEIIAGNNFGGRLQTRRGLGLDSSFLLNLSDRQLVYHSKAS
molecule,measurement,setting,value
Cc1cc2nc3c(=O)[nH]c(=O)nc-3n(C[C@H](O)[C@H](O)[C@H](O)COP(=O)(O)OP(=O)(O)OC[C@H]3O[C@@H](n4cnc5c(N)ncnc54)[C@H](O)[C@@H]3OP(=O)(O)O)c2cc1C [FAD3′P],inhibition,[1],"the effect was more pronounced with the FAD-capped RNA mimic, FAD3′P"
Cc1cc2nc3c(=O)[nH]c(=O)nc-3n(C[C@H](O)[C@H](O)[C@H](O)COP(=O)(O)OP(=O)(O)OC[C@H]3O[C@@H](n4cnc5c(N)ncnc54)[C@H](O)[C@@H]3O)c2cc1C [FAD],inhibition,[1]; free FAD,inhibition was nevertheless detected when using higher concentration of FAD
same,thermal shift,[2],competent for binding FAD (as determined by thermal shift assay; data not shown)
"AGUUGGUGGUUGUUGUGUGUUUGUGGUUGGUUUGUUUGGC (ssRNA, 5' FAD cap) [FAD-capped RNA (FAD-40)]",binding result,[3],binds
"AGUUGGUGGUUGUUGUGUGUUUGUGGUUGGUUUGUUUGGC (ssRNA, 5' NAD cap) [NAD-capped RNA (NAD-40)]",binding result,[3],binds
